The source of these data is patent US20240059729A1, “MULTIFUNCTIONAL CYCLIC DINUCLEOTIDE AND USE THEREOF” (TYLIGAND BIOSCIENCE (SHANGHAI) LIMITED, priority 2020, published 2024).

Assay [1] deals with CT26 cells. The assay can be described thus: Immunological memory function in CT26 transplantation tumor model, syngeneic or nude mouse (re-inoculation). The assay is classed as in vivo, BALB/c immune-competent or nude mice. As to conditions: for Average tumor volume after re-inoculation of CT26 cells: immunocompetent BALB/c mice. How it is done:
BALB/c immune-competent or nude mice of 6-8 weeks (purchased from Shanghai Ling Chang Biotech Co., Ltd.) were inoculated with 5×10^5 CT26 cells (supplied by Taicang Zexin Biotechnology Co., Ltd., ATCC #CRL-2638) subcutaneously on the right back dorsal, respectively, and the inoculation volume was 0.1 mL. When tumors grew to an average volume of 100 mm^3, they were randomized according to tumor size and mouse body weight and dosed. The day of the first dose was Day 0. Two doses were administered on Day 0 and Day 4, with 50 μg of compound/mouse (i.e., 2.5 mg/kg) injected intratumorally, with the same volume of PBS (Hyclone, Cat #SH30258.01) as a control. Mice in the nude or BALB/c mice groups were sacrificed on Day 9 or Day 13 post-dosing, respectively. On Day 21 post-dosing, mice were inoculated again subcutaneously on the left back dorsal with 5×10^5 CT26 cells in a volume of 0.1 mL. Blank BALB/c or nude mice without any treatment were also inoculated as controls. During the experiment, tumor volumes and the body weights were measured 3 times per week, and the tumor volume was calculated as V=D×d×d/2 (Ibid).

For assay [2], the system named is CT26 cells. The assay can be described thus: Inhibition of proliferation of CT26 cells (CellTiter-Glo). The assay is classed as cell-based, mouse. As to conditions: for IC50: 120 hours, CellTiter-Glo. The method, then:
CT26 cell is a mouse colorectal cancer cell line. This assay used the CellTiter-Glo Luminescence Cell Vitality Assay kit from Promega to evaluate the inhibitory activity of the compounds on the proliferation of CT26 cells.
In thawing the CT26 cells (ATCC #CRL-2638), a cell freezing tube was quickly shaken in a water bath at 37° C. to thaw the cells within 1 min. The thawed cell suspension was taken and evenly mixed with DMEM medium (GE, Cat #SH30243.01) containing 10% FBS (GIBCO, Cat #10099-141), centrifuged for 5 min at 1000 rpm, and the supernatant was discarded. The cell pellet was resuspended in 5 mL of the complete medium (DMEM medium containing 10% FBS), placed into a cell culture flask with a bottom area of 25 cm^2, and incubated in a cell incubator at 37° C., 5% CO2 and 95% humidity. When the cell confluence reached 70%˜80%, the cells were passaged. All the cells in the culture flask were transferred to a 15 mL centrifuge tube, centrifuged for 5 min at 1000 rpm, and the supernatant was discarded. 5 mL of fresh complete medium was added to re-suspend the cell pellet, 1 mL of which was taken to place in a cell culture flask with a bottom area of 25 cm^2, supplemented with 4 mL of fresh complete medium for further incubation. When the cell confluence reached 70%-80% again, plating was conducted following the procedure of cell passage, retaining 1/5 cell suspension for further inculation and remaining 4/5 of the cell suspension in a 15 mL centrifuge tube.
The cell suspension was centrifuged to discard the old culture medium, washed once using DMEM medium (serum-free), and centrifuged to remove the supernatant. The cells were then re-suspended in DMEM medium (serum-free). Cell viability was then detected by Trypan blue exclusion test and to be used for plating when the cell viability was confirmed to be more than 95%. A cell suspension with a density of 1.1×10^4 viable cells/mL was prepared using DMEM medium (serum-free), and 90 μL of the cell suspension was added to a 96-well 96-well transparent flat-bottomed black-walled cell culture plate (Corning, Cat #3603) so that the cell density in the plate was 1000 viable cells/well. A control group containing no cells, no compound, and complete medium only (i.e., a culture medium control), and a control group containing no compound but cells (i.e., a cell control) were set. The cell plates were placed in a cell incubator overnight.
A 10 mM stock solution of the compounds in DMSO was first serially diluted at 3.16-fold with DMSO (Sigma, Cat #D2650) to the 9th concentration, and the 10th concentration was set as DMSO control (compound-free). Then, the DMSO solutions containing different concentrations of the compounds were diluted at 10-fold with PBS (Solarbio, Cat #P1020) so that the DMSO content in each compound solution of various concentrations was 10%. Finally, 10 μL of each of such solutions was added into corresponding cell culture plate to provide an initial compound concentration of 100 μM, with the dilution fold of adjacent concentrations being 3.16 and the DMSO content in the cell culture plate being 1%. The cell plate was placed in a cell incubator for further 120 hours.
After 120 hours, the CellTiter-Glo reagent (Promega, Cat #G7572) was thawed and the plates were equilibrated at room temperature for 30 min. 100 uL of CellTiter-Glo was added to each well of the plate, and the cells were lysed thoroughly by shaking on an orbital shaker for 5 min. The plates were placed at room temperature for 20 min to stabilize the luminescence signal, and the luminescence value of each well was scanned at full wavelength with a multifunctional microplate reader (Molecular Devices, Spectramax M3). […]

Assay [3] concerns CT26 cells. Put plainly: Anti-tumor activity in transplantation tumor model of CT26 nude mouse. The format is in vivo, BALB/c nude mice. As to conditions: for Tumor growth inhibition rate in T cell immunodeficient nude mice: Day 9 post-dosing, 50 μg/mouse (2.5 mg/kg) intratumorally, Day 0 and Day 4; for Tumor growth inhibition in immuno-competent mice versus nude mice (in words): FIG. 2D. The method, then: BALB/c nude mice of 6-8 weeks (purchased from Shanghai Ling Chang Biotech Co., Ltd.) were inoculated with 5×10^5 CT26 cells (supplied by Taicang Zexin Biotechnology Co., Ltd., ATCC #CRL-2638) subcutaneously on the right back dorsal, respectively, and the inoculation volume was 0.1 mL. When tumors grew to an average volume of 100 mm^3, they were randomized according to tumor size and mouse body weight and dosed. The day of the first dose was Day 0. Two doses were administered on Day 0 and Day 4, with 50 μg of compound/mouse (i.e., 2.5 mg/kg) injected intratumorally right side, with the same volume of PBS (Hyclone, Cat #SH30258.01) as a control. The control mice were sacrificed 9 days, the ADU-S100 treated mice were sacrificed 14 days, and Example 10 treated mice were sacrificed 16 days, after dosing, respectively. During the experiment, tumor volumes and the body weights were measured 3 times per week, and the tumor volume was calculated as V=D×d×d/2 (Ibid).

Counter-ions that a name gives are not always drawn.

As for `Nc1nc2c(ncn2[C@@H]2O[C@@H]3CO[P@@](=O)(S)OC4C(F)[C@H](n5cnc6c(N)nc(Cl)nc65)O[C@@H]4CO[P@@](=O)(S)OC2C3O)c(=O)[nH]1` (stereo partly drawn) [Example 10, (2′,3′)-cyclo-(Rp,Rp)-[2′-O-phosphorothioate-diester-guanosine]-[3′-O-phosphorothioate-diester-2-chloro-2′-deoxy-2′-fluoro-beta-adenosine] diammonium salt], in the assay with CT26 cells [1] (50 μg/mouse intratumorally, Day 0 and Day 4), the “CT26 tumor growth inhibition in immunocompetent and immunodeficient mice (in words)” value was “significantly inhibited CT26 tumor growth in both immunocompetent and immunodeficient mice”. Further, the “Tumor status in treated immunocompetent mice” value in the assay with CT26 cells [1] (Day 5 post-dosing) is “the tumors completely disappeared”. The “Average tumor volume after re-inoculation of CT26 cells” value in the assay on CT26 cells [1] (re-inoculated Day 21, end of experiment Day 33) is given as 101 mm^3. In addition, the “Average tumor volume after re-inoculation of CT26 cells” value with CT26 cells [1] (re-inoculated Day 21, measured Day 30) was determined as 29 mm^3. In the assay with CT26 cells [1] (re-inoculated CT26 cells), the “Immunological memory in immunocompetent mice” value is “developed an immunological memory”. The “Immunological memory in immunodeficient nude mice” value with CT26 cells [1] (re-inoculated CT26 cells Day 21) was “no immunological memory has been generated”. Further, in the assay with CT26 cells [2], the “Inhibitory potency on in vitro growth of CT26 tumor cells (in words)” value is “particularly significant inhibitory potency”. This compound also came in with an IC50 in the assay on CT26 cells [2] (Mus musculus) of under 1 µM. In addition, in the assay on CT26 cells [3], the “Tumor growth inhibition rate in T cell immunodeficient nude mice” value was found to be 94.4% and the “Tumor growth inhibition in immuno-competent mice versus nude mice (in words)” value was “better tumor growth inhibition in immuno-competent mice than in nude mice”.
In the assay with CT26 cells [2] (Mus musculus), `Nc1nc2c(ncn2[C@@H]2O[C@@H]3CO[P@@](=O)(S)OC4C(F)[C@H](n5cnc6c(N)nc(Cl)nc65)O[C@@H]4CO[P@@](=O)(S)OC3C2O)c(=O)[nH]1` (stereo partly drawn) [Example 17, diammonium salt] came in with an IC50 of 1 to 10 µM.
Regarding `Nc1ncnc2c1ncn2[C@@H]1O[C@@H]2COP(=O)([S-])O[C@@H]3[C@H](O)[C@@H](COP([O-])(=S)O[C@H]2[C@H]1O)O[C@H]3n1cnc2c(N)ncnc21.[Na+].[Na+]` (stereo partly drawn) [ADU-S100, reference compound], in the assay on CT26 cells [2], the “Inhibitory potency on in vitro growth of CT26 tumor cells (in words)” value is reported as “no significant tumor cell inhibitory potency” and the IC50 was over 10 µM. In the assay with CT26 cells [3], the “Tumor growth inhibition rate in T cell immunodeficient nude mice” value amounted to 61.4% and the “Tumor growth inhibition in immuno-competent mice versus nude mice (in words)” value is given as “better tumor growth inhibition in immuno-competent mice than in nude mice”.
